{"source": "ChEMBL document CHEMBL5550131", "about": "“Medicinal chemistry strategies toward broad-spectrum antiviral agents to prevent next pandemics” (Eur J Med Chem, 2024)", "key": {"[1]": {"assay": "Inhibition of Hepatitis C virus NS5B RNA dependent RNA polymerase", "design": "species or system Hepacivirus hominis"}, "Human alphaherpesvirus 1": {"test_system": "Human alphaherpesvirus 1", "assay": "Antiviral activity against HSV 1 infected in African green monkey Vero cells assessed as reduction in plaque formation incubated for 36 hrs by crystal violet staining based assay", "type": "functional, organism-based", "conditions": "Human alphaherpesvirus 1, Vero"}, "rhinovirus B14": {"test_system": "rhinovirus B14", "assay": "Antiviral activity against human Rhinovirus 14 infected in H1-HeLa cells incubated for 3 days by crystal-violet staining based analysis", "type": "functional, organism-based", "conditions": "Rhinovirus B, 72 h"}, "Enterovirus": {"test_system": "Enterovirus", "assay": "Antiviral activity against Enterovirus infected in human H1-HeLa cells incubated for 3 days by crystal violet staining based plaque counting analysis", "type": "functional, organism-based", "conditions": "72 h"}, "[2]": {"assay": "Inhibition of Influenza A virus RNA-dependent RNA polymerase"}, "[3]": {"biological_target": "Dihydroorotate dehydrogenase (quinone), mitochondrial (Homo sapiens, UniProt Q02127)", "sequence (Q02127 whole entry)": "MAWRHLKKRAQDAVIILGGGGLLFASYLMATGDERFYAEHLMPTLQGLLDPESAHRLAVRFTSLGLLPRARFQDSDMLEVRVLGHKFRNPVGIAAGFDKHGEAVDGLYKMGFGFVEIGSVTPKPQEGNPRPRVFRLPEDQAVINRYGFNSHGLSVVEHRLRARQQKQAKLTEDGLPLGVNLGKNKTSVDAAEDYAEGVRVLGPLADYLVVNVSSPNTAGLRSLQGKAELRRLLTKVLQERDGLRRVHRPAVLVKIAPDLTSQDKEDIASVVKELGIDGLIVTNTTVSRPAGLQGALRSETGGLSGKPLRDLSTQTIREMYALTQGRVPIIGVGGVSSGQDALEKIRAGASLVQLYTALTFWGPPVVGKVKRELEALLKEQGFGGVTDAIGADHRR", "assay": "Inhibition of DHOH (unknown origin)"}, "clinical": {"assay": "clinical", "conditions": "human, in vivo, iv, 5 mg/kg", "description": "Elimination half life in human at 5 mg/kg, iv"}, "[4]": {"assay": "Elimination half life in human", "type": "ADME", "conditions": "read-out: beta t1/2 (converted)"}, "Influenza A virus": {"test_system": "Influenza A virus", "assay": "Anti-influenza activity against Influenza A virus infected in MDCK cells assessed as reduction in virus-induced cytopathic effect incubated for 48 hrs by CCK-8 assay", "type": "functional, organism-based"}}}
{"smiles": "C[C@@]1(O)[C@H](O)[C@@H](CO)O[C@H]1n1ccc2c(N)ncnc21", "note": "[BETA-2'-C-METHYL-7-DEAZA-ADENOSINE]", "values": [{"measurement": "IC50", "setting": "[1]", "value": 5, "unit": "µM"}]}
{"smiles": "C=CCNC1=C2C[C@@H](C)C[C@H](OC)[C@H](O)[C@@H](C)/C=C(\\C)[C@H](OC(N)=O)[C@@H](OC)/C=C/C=C(\\C)C(=O)NC(=CC1=O)C2=O", "values": [{"measurement": "IC50", "setting": "Human alphaherpesvirus 1", "value": 0.0078, "unit": "µM"}]}
{"smiles": "COc1ccc(OCCCCCCn2ccnc2)c(Cl)c1", "values": [{"measurement": "EC50", "setting": "rhinovirus B14", "value": 10, "unit": "µM"}, {"measurement": "EC50", "setting": "Enterovirus", "value": 10, "unit": "µM"}]}
{"smiles": "NC(=O)c1nc(F)cn([C@@H]2O[C@H](COP(=O)(O)OP(=O)(O)OP(=O)(O)O)[C@@H](O)[C@H]2O)c1=O", "values": [{"measurement": "IC50", "setting": "[2]", "value": 0.341, "unit": "µM"}]}
{"smiles": "CN(/N=C/c1ccccc1C(=O)O)c1nc(-c2ccccc2Cl)cs1", "values": [{"measurement": "IC50", "setting": "[3]", "value": 0.0075, "unit": "µM"}]}
{"smiles": "CCC(CC)COC(=O)[C@H](C)N[P@](=O)(OC[C@H]1O[C@@](C#N)(c2ccc3c(N)ncnn23)[C@H](O)[C@@H]1O)Oc1ccccc1", "values": [{"measurement": "half-life", "setting": "clinical", "value": 0.48, "unit": "h"}]}
{"smiles": "N#C[C@@]1(c2ccc3c(N)ncnn23)O[C@H](COP(=O)(O)OP(=O)(O)OP(=O)(O)O)[C@@H](O)[C@H]1O", "note": "[RDV-TP]", "values": [{"measurement": "half-life", "setting": "[4]", "value": 26.6, "unit": "h"}]}
{"smiles": "O=[N+]([O-])c1ccc(CNc2ccc3ncsc3c2)cc1", "values": [{"measurement": "IC50", "setting": "Influenza A virus", "value": 3.36, "unit": "µM"}]}
